# Results: ChEMBL document CHEMBL1201862, “PubChem BioAssay data set” (2004)
#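 Briefly, cells in 96-well plates were exposed to five compound concentrations for 48 h, and endpoints were estimated by linear interpolation. GI50 is the concentration that inhibits growth by half.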 Calls of active or inactive are those of the source. No stated cut-off is given here; in the data, active = GI50 up to about 1.1 µM and inactive = higher. Residues, ends and D or L forms follow the SMILES beside them.
# Key:
# Assay in all cases: DTP human tumour cell line panel, 48 h
# 786-0 = system: 786-0
# A549 = system: A549
# ACHN = system: ACHN
# BT-549 = system: BT-549
# CAKI-1 = system: CAKI-1
# CCRF-CEM = system: CCRF-CEM
# COLO 205 = system: COLO 205
# DU-145 = system: DU-145
# EKVX = system: EKVX
# HCC 2998 = system: HCC 2998
# HCT-116 = system: HCT-116
# HCT-15 = system: HCT-15
# HL-60 = system: HL-60
# HOP-62 = system: HOP-62
# HOP-92 = system: HOP-92
# HT-29 = system: HT-29
# Hs-578T = system: Hs-578T
# IGROV-1 = system: IGROV-1
# K562 = system: K562
# KM12 = system: KM12
# LOX IMVI = system: LOX IMVI
# M14 = system: M14
# MDA-MB-231 = system: MDA-MB-231
# MDA-MB-435 = system: MDA-MB-435
# MDA-N = system: MDA-N
# MOLT-4 = system: MOLT-4
# Malme-3M = system: Malme-3M
# NCI-H226 = system: NCI-H226
# NCI-H23 = system: NCI-H23
# NCI-H460 = system: NCI-H460
# NCI-H522 = system: NCI-H522
# NCI/ADR-RES = system: NCI/ADR-RES
# OVCAR-3 = system: OVCAR-3
# OVCAR-4 = system: OVCAR-4
# OVCAR-5 = system: OVCAR-5
# OVCAR-8 = system: OVCAR-8
# PC-3 = system: PC-3
# RPMI-8226 = system: RPMI-8226
# RXF 393 = system: RXF 393
# SF-268 = system: SF-268
# SF-295 = system: SF-295
# SF-539 = system: SF-539
# SK-MEL-28 = system: SK-MEL-28
# SK-MEL-2 = system: SK-MEL-2
# SK-MEL-5 = system: SK-MEL-5
# SK-OV-3 = system: SK-OV-3
# SN12C = system: SN12C
# SNB-19 = system: SNB-19
# SNB-75 = system: SNB-75
# SW-620 = system: SW-620
# TK-10 = system: TK-10
# U-251 = system: U-251
# UACC-257 = system: UACC-257
# UACC-62 = system: UACC-62
# UO-31 = system: UO-31
# MCF7 = system: MCF7
# SR = system: SR
smiles,measurement,setting,value
c1nc(OCC2CCCCC2)c2nc[nH]c2n1,GI50,786-0,> 100 µM (inactive)
same,GI50,A549,66.4 µM (inactive)
same,GI50,ACHN,10.1 µM (inactive)
same,GI50,BT-549,> 100 µM (inactive)
same,GI50,CAKI-1,> 100 µM (inactive)
same,GI50,CCRF-CEM,> 100 µM (inactive)
same,GI50,COLO 205,32 µM (inactive)
same,GI50,DU-145,73.8 µM (inactive)
same,GI50,EKVX,53 µM (inactive)
same,GI50,HCC 2998,> 100 µM (inactive)
same,GI50,HCT-116,35.7 µM (inactive)
same,GI50,HCT-15,46.3 µM
same,GI50,HL-60,> 100 µM (inactive)
same,GI50,HOP-62,55.7 µM (inactive)
same,GI50,HOP-92,66.7 µM (inactive)
same,GI50,HT-29,49.9 µM (inactive)
same,GI50,Hs-578T,> 100 µM (inactive)
same,GI50,IGROV-1,46.5 µM (inactive)
same,GI50,K562,99.8 µM (inactive)
same,GI50,KM12,54.1 µM (inactive)
same,GI50,LOX IMVI,34.9 µM (inactive)
same,GI50,M14,59.4 µM (inactive)
same,GI50,MDA-MB-231,63.2 µM (inactive)
same,GI50,MDA-MB-435,46.7 µM (inactive)
same,GI50,MDA-N,28.2 µM (inactive)
same,GI50,MOLT-4,31.6 µM (inactive)
same,GI50,Malme-3M,70.5 µM (inactive)
same,GI50,NCI-H226,26.9 µM (inactive)
same,GI50,NCI-H23,45.3 µM (inactive)
same,GI50,NCI-H460,72.6 µM (inactive)
same,GI50,NCI-H522,44.4 µM (inactive)
same,GI50,NCI/ADR-RES,61.4 µM (inactive)
same,GI50,OVCAR-3,53.1 µM (inactive)
same,GI50,OVCAR-4,> 100 µM (inactive)
same,GI50,OVCAR-5,62.7 µM (inactive)
same,GI50,OVCAR-8,47.2 µM (inactive)
same,GI50,PC-3,85.9 µM (inactive)
same,GI50,RPMI-8226,15.6 µM (inactive)
same,GI50,RXF 393,60.7 µM (inactive)
same,GI50,SF-268,44.5 µM (inactive)
same,GI50,SF-295,50.9 µM (inactive)
same,GI50,SF-539,36.1 µM (inactive)
same,GI50,SK-MEL-28,> 100 µM (inactive)
same,GI50,SK-MEL-2,40.6 µM (inactive)
same,GI50,SK-MEL-5,26.1 µM (inactive)
same,GI50,SK-OV-3,43.7 µM (inactive)
same,GI50,SN12C,57.8 µM (inactive)
same,GI50,SNB-19,> 100 µM (inactive)
same,GI50,SNB-75,51.4 µM (inactive)
same,GI50,SW-620,59.6 µM (inactive)
same,GI50,TK-10,> 100 µM (inactive)
same,GI50,U-251,58.3 µM (inactive)
same,GI50,UACC-257,91.8 µM (inactive)
same,GI50,UACC-62,47.1 µM (inactive)
same,GI50,UO-31,42.9 µM (inactive)
CCC(C)C(NC(=O)C(CCCCN)NC(=O)C(NC(=O)C(CCC(N)=O)NC(=O)C(N)CCCNC(=N)N)C(C)CC)C(=O)NC(Cc1c[nH]c2ccccc12)C(=O)NC(Cc1ccccc1)C(=O)NC(CCC(N)=O)C(=O)NC(CC(N)=O)C(=O)NC(CCCNC(=N)N)C(=O)NC(CCCNC(=N)N)C(=O)NC(CCSC)C(=O)NC(CCCCN)C(=O)NC(Cc1c[nH]c2ccccc12)C(=O)NC(CCCCN)C(=O)NC(CCCCN)C(=O)N1CCCC1C(=O)NC(C)C(=O)NC(CCCCN)C(=O)NC(CCCNC(=N)N)C(=O)NC(CCCCN)C(=O)NC(CC(C)C)C(=O)NC(Cc1ccccc1)C(=O)NCC(=O)O (stereo not given) (H-RQIKIWFQNRRMKWKKPAKRKLFG-OH; configuration not given here),GI50,786-0,17.5 µM (inactive)
same,GI50,A549,> 25 µM (inactive)
same,GI50,ACHN,> 25 µM (inactive)
same,GI50,BT-549,> 25 µM (inactive)
same,GI50,CAKI-1,> 25 µM (inactive)
same,GI50,CCRF-CEM,12.4 µM (inactive)
same,GI50,COLO 205,> 25 µM (inactive)
same,GI50,DU-145,> 25 µM (inactive)
same,GI50,EKVX,> 25 µM (inactive)
same,GI50,HCC 2998,> 25 µM (inactive)
same,GI50,HCT-116,16.3 µM (inactive)
same,GI50,HCT-15,> 25 µM
same,GI50,HL-60,6.93 µM (inactive)
same,GI50,HOP-62,> 25 µM (inactive)
same,GI50,HOP-92,9.64 µM (inactive)
same,GI50,HT-29,> 25 µM (inactive)
same,GI50,Hs-578T,21.1 µM (inactive)
same,GI50,IGROV-1,> 25 µM (inactive)
same,GI50,K562,> 25 µM (inactive)
same,GI50,KM12,9.31 µM (inactive)
same,GI50,LOX IMVI,> 25 µM (inactive)
same,GI50,M14,12.1 µM (inactive)
same,GI50,MCF7,> 25 µM (inactive)
same,GI50,MDA-MB-231,10.5 µM (inactive)
same,GI50,MDA-MB-435,16 µM (inactive)
same,GI50,MDA-N,> 25 µM (inactive)
same,GI50,MOLT-4,> 25 µM (inactive)
same,GI50,Malme-3M,6.75 µM (inactive)
same,GI50,NCI-H226,> 25 µM (inactive)
same,GI50,NCI-H23,> 25 µM (inactive)
same,GI50,NCI-H460,24.7 µM (inactive)
same,GI50,NCI-H522,> 25 µM (inactive)
same,GI50,NCI/ADR-RES,> 25 µM (inactive)
same,GI50,OVCAR-3,> 25 µM (inactive)
same,GI50,OVCAR-4,> 25 µM (inactive)
same,GI50,OVCAR-5,> 25 µM (inactive)
same,GI50,OVCAR-8,> 25 µM (inactive)
same,GI50,PC-3,> 25 µM (inactive)
same,GI50,RPMI-8226,5.93 µM (inactive)
same,GI50,RXF 393,> 25 µM (inactive)
same,GI50,SF-268,15.9 µM (inactive)
same,GI50,SF-295,> 25 µM (inactive)
same,GI50,SK-MEL-28,> 25 µM (inactive)
same,GI50,SK-MEL-2,> 25 µM (inactive)
same,GI50,SK-MEL-5,16.5 µM (inactive)
same,GI50,SK-OV-3,> 25 µM (inactive)
same,GI50,SN12C,> 25 µM (inactive)
same,GI50,SNB-19,> 25 µM (inactive)
same,GI50,SNB-75,> 25 µM (inactive)
same,GI50,SR,> 25 µM (inactive)
same,GI50,SW-620,> 25 µM (inactive)
same,GI50,TK-10,> 25 µM (inactive)
same,GI50,U-251,17 µM (inactive)
same,GI50,UACC-257,21.9 µM (inactive)
same,GI50,UO-31,> 25 µM (inactive)
